From ChEMBL document CHEMBL1208698, “Synthesis of novel alpha-pyranochalcones and pyrazoline derivatives as Plasmodium falciparum growth inhibitors” (Bioorg Med Chem Lett, 2010)
In brackets after ≈: the same amount, converted by molar mass.

Experiments:
[1] = test system: Plasmodium falciparum; test: Antimalarial activity against chloroquine-sensitive Plasmodium falciparum 3D7 infected in human erythrocyte after 48 h by SYBR-Green-1 assay; type: functional, organism-based; conditions: 3D7, 48 h
[2] = test system: Plasmodium falciparum; test: Antimalarial activity against chloroquine-resistant Plasmodium falciparum RKL9 infected in human erythrocyte after 48 h by SYBR-Green-1 assay; type: functional, organism-based; conditions: RKL9, 48 h
[3] = test system: Plasmodium falciparum; test: Resistance index, ratio of IC50 for Plasmodium falciparum 3D7 to IC50 for Plasmodium falciparum RKL9; type: functional
[4] = Cytotoxicity against human HeLa cells after 24 to 48 hrs by MTT assay; type: cell-based; conditions: read-out: TC50 (the source's name)
[5] = Therapeutic index, ratio of TC50 for human HeLa cells to IC50 for Plasmodium falciparum RKL9; type: cell-based; conditions: read-out: TI

Q: With `COc1cc(/C=C/C(=O)c2cc3ccccc3oc2=O)cc(OC)c1OC` as the compound, how does the IC50 [1] read?
A: Its IC50 is 3.1 µg/mL (≈ 8.46 µM).

Q: What about the IC80 [1] of the same compound?
A: Its IC80 is 6 µg/mL (≈ 16.4 µM).

Q: What about the IC50 [2] of the same compound?
A: The IC50 was 1.9 µg/mL (≈ 5.19 µM).

Q: What about the “Ratio IC50” value [3] of the same compound?
A: Its value is 1.6.

Q: What about the CC50 [4] of the same compound?
A: Its CC50 is > 100 µg/mL.

Q: And the selectivity ratio [5]?
A: Its selectivity ratio is > 50.

Q: Which IC50 [1] does the source give for `COc1cccc(/C=C/C(=O)c2cc3ccccc3oc2=O)c1` here?
A: The IC50 was 11 µg/mL (≈ 35.9 µM).

Q: And the IC80 [1]?
A: The IC80 was 24 µg/mL (≈ 78.4 µM).

Q: What about the IC50 [2] of the same compound?
A: Its IC50 is 4.9 µg/mL (≈ 16 µM).

Q: What about the “Ratio IC50” value [3] of the same compound?
A: The value was 2.2.

Q: And the CC50 [4]?
A: Its CC50 is > 100 µg/mL.

Q: And the selectivity ratio [5]?
A: Its selectivity ratio is > 20.

Q: Which IC50 [1] does the source give for `COc1ccc(/C=C/C(=O)c2cc3ccccc3oc2=O)cc1OC` here?
A: The IC50 was 26.7 µg/mL (≈ 79.4 µM).

Q: What about the IC80 [1] of the same compound?
A: Its IC80 is 100 µg/mL (≈ 297 µM).

Q: For `COc1ccc(/C=C/C(=O)c2cc3ccccc3oc2=O)cc1`, which IC50 [1] is on record?
A: Its IC50 is > 100 µg/mL.

Q: What does the source list for `COc1ccc(OC)c(/C=C/C(=O)c2cc3ccccc3oc2=O)c1`?
A: IC50 [1]: 2.7 µg/mL (≈ 8.03 µM); IC80 [1]: 11.3 µg/mL (≈ 33.6 µM)

Q: Which results are given for `COc1ccc(/C=C/C(=O)c2cc3ccccc3oc2=O)c(OC)c1OC`?
A: IC50 [1]: 3.1 µg/mL (≈ 8.46 µM); IC80 [1]: 6.2 µg/mL (≈ 16.9 µM); IC50 [2]: 1.1 µg/mL (≈ 3 µM); Ratio IC50 [3]: 2.8; CC50 [4]: 100 µg/mL (≈ 273 µM); selectivity ratio [5]: 90.9

Q: For `COc1cc(OC)c(OC)cc1/C=C/C(=O)c1cc2ccccc2oc1=O`, which IC50 [1] is on record?
A: Its IC50 is > 100 µg/mL.

Q: With `COc1ccccc1/C=C/C(=O)c1cc2ccccc2oc1=O` as the compound, how does the IC50 [1] read?
A: Its IC50 is > 100 µg/mL.

Q: Which IC50 [1] does the source give for `Cc1cc(=O)oc2ccc(C(=O)/C=C/c3ccccc3Cl)c(O)c12` here?
A: Its IC50 is 20 µg/mL (≈ 58.7 µM).

Q: And the IC80 [1]?
A: Its IC80 is 25 µg/mL (≈ 73.4 µM).

Q: What about the IC50 [2] of the same compound?
A: Its IC50 is 13.5 µg/mL (≈ 39.6 µM).

Q: What about the “Ratio IC50” value [3] of the same compound?
A: Its value is 1.5.

Q: Which IC50 [1] does the source give for `COc1ccc(OC)c(/C=C/C(=O)c2ccc3oc(=O)cc(C)c3c2O)c1` here?
A: The IC50 was > 100 µg/mL.

Q: With `COc1ccc(C2CC(c3cc4ccccc4oc3=O)=NN2C(C)=O)cc1OC` (stereo not given) as the compound, how does the IC50 [1] read?
A: Its IC50 is 10 µg/mL (≈ 25.5 µM).

Q: What about the IC80 [1] of the same compound?
A: Its IC80 is 14 µg/mL (≈ 35.7 µM).

Q: And the IC50 [2]?
A: The IC50 was 9 µg/mL (≈ 22.9 µM).

Q: What about the “Ratio IC50” value [3] of the same compound?
A: The value was 1.1.

Q: What about the CC50 [4] of the same compound?
A: Its CC50 is > 100 µg/mL.

Q: What about the selectivity ratio [5] of the same compound?
A: The selectivity ratio was > 10.

Q: With `COc1ccc(C2CC(c3cc4ccccc4oc3=O)=NN2c2ccccc2)cc1OC` (stereo not given) as the compound, how does the IC50 [1] read?
A: The IC50 was 10 µg/mL (≈ 23.4 µM).

Q: What about the IC80 [1] of the same compound?
A: The IC80 was 44 µg/mL (≈ 103 µM).

Q: And the IC50 [2]?
A: Its IC50 is 7.6 µg/mL (≈ 17.8 µM).

Q: What about the “Ratio IC50” value [3] of the same compound?
A: The value was 1.3.

Q: And the CC50 [4]?
A: The CC50 was > 100 µg/mL.

Q: What about the selectivity ratio [5] of the same compound?
A: Its selectivity ratio is > 13.

Q: Which IC50 [1] does the source give for `CC(=O)N1N=C(c2ccc(O)cc2)CC1c1ccc(F)cc1` (stereo not given) here?
A: Its IC50 is > 100 µg/mL.

Q: For `C[C@@H]1CC[C@H]2[C@@H](C)C(=O)O[C@@H]3O[C@@]4(C)CC[C@@H]1[C@]32OO4` [ARTEMISININ], which IC80 [1] is on record?
A: Its IC80 is 0.00846 µg/mL (≈ 0.03 µM).

Q: What about the IC50 [2] of the same compound?
A: The IC50 was 0.00451 µg/mL (≈ 0.016 µM).
